Test results taken from US20250066300A1, “3-(2-(DIMETHYLAMINO)ETHYL)-1H-INDOL-4-yl OLIGOMERIC DERIVATIVES” (priority 2023, published 2025).

Assay: Psilocin conversion in the dose formulation (HPLC-MS/MS)
Assay type: physicochemical
Conditions: saline formulation, final pH 6.3, aliquots stored at −80° C. until analysis
Procedure: Compounds: Compound 122 was dissolved in saline (1.3 mg/kg) and adjusted to pH 7.4 for SC administration to the neck scruff at a dosing volume of 5 mL/kg. The final pH was checked prior to dosing, and found to be pH 6.3. This dose was selected as it delivered 0.72 mg/kg psilocin (assuming 100% conversion of the pro-drug). Aliquots of the formulation was additionally collected and stored at −80° C. until analysis by high performance liquid chromatography with tandem mass spectrometry (HPLC-MS/MS) to confirm dosing of compound 122 and minimal conversion to psilocin pre-dose (<2.5%).
[…]. Three aliquots from the dose formulations were diluted to a nominal concentration of 5 μg/mL, and injected in triplicate into the HPLC-MS/MS. The relative percentage of the psilocin peak in the dose formulation compared to the psilocin standard peak at 5 μg/mL, was used to assess for psilocin conversion in the dosing formulations.

CN(C)CCc1c[nH]c2cccc(OC(=O)CCCC(=O)Oc3cccc4[nH]cc(CCN(C)C)c34)c12 [Compound 122, bis(3-(2-(dimethylamino)ethyl)-1H-indol-4-yl) glutarate]
conversion to psilocin pre-dose in dose formulation: < 2.5%
